Measurements reported in US20220306606A1, “MODULATOR OF CYSTIC FIBROSIS TRANSMEMBRANE CONDUCTANCE REGULATOR, PHARMACEUTICAL COMPOSITIONS, METHODS OF TREATMENT, AND PROCESS FOR MAKING THE MODULATOR” (Vertex Pharmaceuticals Incorporated, priority 2016, published 2022).
“Also recorded” adds a separate entry of the source. Read-outs that look alike come from different tables or passages of the source.

How the values were obtained:
F508del-CFTR [1] = target: T1, F508del-CFTR (Homo sapiens, UniProt P13569, DEL508-508); assay: Ussing chamber chloride transport in HBE cells; format: cell-based; set-up: CF-HBE were isolated from patients homozygous for F508del; endogenous in cells; host or cells: primary human bronchial epithelial (HBE) cells, F508del/F508del
Protocol: Ussing chamber experiments were performed on polarized airway epithelial cells expressing F508del to further characterize the F508del modulators identified in the optical assays. Non-CF and CF airway epithelia were isolated from bronchial tissue, cultured as previously described (Galietta, L. J. V., Lantero, S., Gazzolo, A., Sacco, O., Romano, L., Rossi, G. A., & Zegarra-Moran, O. (1998) In Vitro Cell Dev. Biol. 34, 478-481), and plated onto Costar® Snapwell™ filters that were precoated with NIH3T3-conditioned media. After four days the apical media was removed and the cells were grown at an air liquid interface for >14 days prior to use.
HBE grown on Costar® Snnapwell™ cell culture inserts were mounted in an Ussing chamber (Physiologic Instruments, Inc., San Diego, Calif.), and the transepithelial resistance and short-circuit current in the presence of a basolateral to apical […] gradient (ISC) were measured using a voltage-clamp system (Department of Bioengineering, University of Iowa, Iowa). Briefly, HBE were examined under voltage-clamp recording conditions (Vhold=0 mV) at 37° C. The basolateral solution contained (in mM) 145 NaCl, 0.83 K2HPO4, 3.3 KH2PO4, 1.2 MgCl2, 1.2 CaCl2, 10 Glucose, 10 HEPES (pH adjusted to 7.35 with NaOH) and the apical solution contained (in mM) 145 NaGluconate, 1.2 MgCl2, 1.2 CaCl2, 10 glucose, 10 HEPES (pH adjusted to 7.35 with NaOH).
5A-A2. […]

Rat IV and PO PK studies = format: in vivo; settings: male Sprague-Dawley rats, oral 3 mg/kg
Protocol: 5C. Experimental Protocol for Rat IV and PO PK Studies
The tested compound was administered to male Sprague-Dawley rats as a single nominal intravenous dose of 3.0 mg/kg as a solution in 10% NMP, 10% solutol, 15% EtOH, 35% PEG400 and 30% D5W. The tested compound was also administered to male Sprague-Dawley rats at single nominal oral dose of 3 mg/kg as a solution in 5% NMP, 30% PEG400, 10% TPGS, 5% PVP-K30 at 5 mL/kg dose volume. Analyses of plasma and dose preparations were performed using LC/MS/MS.
Plasma concentration-time profiles of the tested compound in Sprague-Dawley rats at scheduled (nominal) sampling times were analyzed by noncompartmental pharmacokinetic methods using PK function within Watson LIMS software, Version 7.4.2 (Thermo Scientific Inc, Waltham, Mass.). AUC values were calculated using the linear trapezoidal rule.

F508del-CFTR [2] = target: T1, F508del-CFTR; assay: F508del-CFTR processing and trafficking in vitro (170 to 180 kDa band); format: cell-based; set-up: CF-HBE were isolated from patients homozygous for F508del; endogenous in cells; host or cells: primary human bronchial epithelial (HBE) cells, F508del/F508del
Protocol: The CFTR protein delivered to the cell surface by Compound 1 alone or in combination with Compound II (Compound 1/Compound II) was potentiated by Compound III.
Incubation of F508del/F508del-HBE cells for 16 to 24 hours with 1 μM Compound 1 alone or in combination with […].

[3] = target: T2, Human Serum Albumin (HSA) (Homo sapiens, UniProt P02768); assay: Chromatographic determination of Human Serum Albumin (HSA) binding; format: in vitro ADME; settings: ChiralPak HSA column retention time converted to % HSA
T2 construct: purchased Sigma Aldrich 58469AST
Protocol: 5B. Chromatographic Determination of Human Serum Albumin (HSA) Assay
Chromatographic determination of Human Serum Albumin (HSA) values was performed on a UPLC-MS system using a ChiralPak® HSA column (p/n: 58469AST) from Sigma Aldrich. Mobile phase A consisted of 50 mM ammonium acetate buffer in water adjusted to pH=7.4, and mobile phase B was 2-propanol. The column compartment was kept at constant temperature of 30° C. Determination of retention time on the HSA column was performed by injecting […] of 0.5 mM of compound (in DMSO) using a linear gradient from 0%-30% B in 2.5 minutes, followed by a hold at 30%B for 2 minutes, and the final equilibration step from 30%-0% B in 1.5 minutes, for a total run time of 6 minutes. Flow rate was kept constant throughout the gradient and set to 1.8 mL/min. Compound retention time on the HSA column was converted to % HSA values according to a previously published protocol (Valko, et. al, 2003) correlating column retention times to standard plasma protein binding (PPB) values obtained from dialysis experiments. HSA data for certain compounds are summarized below in Table 8 below.
Valko, K., Nunhuck, S., Bevan, C., Abraham, M. H., Reynolds, D. P. Fast Gradient HPLC Method to Determine Compounds Binding to Human Serwn Albumin. Relationships with Octanol/Water and. Immobilized Artificial Membrane Lipophilicity. J. of Pharm. Sci. 2003, 92, 2236-2248.

F508del-CFTR [4] = target: T1, F508del-CFTR; assay: Membrane potential optical (FLIPR) assay for F508del-CFTR modulators; format: cell-based; set-up: expressed in transfected cells; settings: read-out: CFTRdF508 EC50
Text: Membrane Potential Optical Methods for Assaying Properties of F508del-CFIR Modulators
The assay utilizes fluorescent voltage sensing dyes to measure changes in membrane potential using a fluorescent plate reader (e.g., FLIPR III, Molecular Devices, Inc.) as a readout for increase in functional F508del in NIH 3T3 cells.
5A-A1. Identification of F508del-CTTR Modulators
To identify modulators of F508del, a fluorescence based HTS assay format was developed. This HTS assay utilizes fluorescent voltage sensing dyes to measure changes in membrane potential on the FLIPR III as a measurement for increase in gating (conductance) of F508del NIH 3T3 cells.
Bath Solution #1: (in mM) NaCl 160, KCl 4.5, CaCl2 2, MgCl2 1, HEPES 10, pH 7.4 with NaOH, Glucose 10.
Chloride-free bath solution: Chloride salts in Bath Solution #1 (above) are substituted with gluconate salts.
NIH3T3 mouse fibroblasts stably expressing F508del are used for optical measurements of membrane potential. The cells are maintained at 37° C. in 5% CO2 and 90% humidity in Dulbecco's modified Eagle's medium supplemented with 2 mM glutamine, 10% fetal bovine serum, 1×NEAR, β-ME, 1×pen/strep, and 25 mM HEPES in 175 cm^2 culture flasks, For all optical assays, the cells were seeded at 12,000 cells/well in 384-well matrigel-coated plates and cultured for 18-24 hrs at 37° C. for the potentiator assay. For the correction assays, the cells are cultured at 37° C. with and without compounds for 18-24 hours.

[5] = Table 6, F508del NIH 3T3 cells, assay of Example 5A-A1

T1 sequence (P13569 with tags, fused parts or gaps DEL508-508): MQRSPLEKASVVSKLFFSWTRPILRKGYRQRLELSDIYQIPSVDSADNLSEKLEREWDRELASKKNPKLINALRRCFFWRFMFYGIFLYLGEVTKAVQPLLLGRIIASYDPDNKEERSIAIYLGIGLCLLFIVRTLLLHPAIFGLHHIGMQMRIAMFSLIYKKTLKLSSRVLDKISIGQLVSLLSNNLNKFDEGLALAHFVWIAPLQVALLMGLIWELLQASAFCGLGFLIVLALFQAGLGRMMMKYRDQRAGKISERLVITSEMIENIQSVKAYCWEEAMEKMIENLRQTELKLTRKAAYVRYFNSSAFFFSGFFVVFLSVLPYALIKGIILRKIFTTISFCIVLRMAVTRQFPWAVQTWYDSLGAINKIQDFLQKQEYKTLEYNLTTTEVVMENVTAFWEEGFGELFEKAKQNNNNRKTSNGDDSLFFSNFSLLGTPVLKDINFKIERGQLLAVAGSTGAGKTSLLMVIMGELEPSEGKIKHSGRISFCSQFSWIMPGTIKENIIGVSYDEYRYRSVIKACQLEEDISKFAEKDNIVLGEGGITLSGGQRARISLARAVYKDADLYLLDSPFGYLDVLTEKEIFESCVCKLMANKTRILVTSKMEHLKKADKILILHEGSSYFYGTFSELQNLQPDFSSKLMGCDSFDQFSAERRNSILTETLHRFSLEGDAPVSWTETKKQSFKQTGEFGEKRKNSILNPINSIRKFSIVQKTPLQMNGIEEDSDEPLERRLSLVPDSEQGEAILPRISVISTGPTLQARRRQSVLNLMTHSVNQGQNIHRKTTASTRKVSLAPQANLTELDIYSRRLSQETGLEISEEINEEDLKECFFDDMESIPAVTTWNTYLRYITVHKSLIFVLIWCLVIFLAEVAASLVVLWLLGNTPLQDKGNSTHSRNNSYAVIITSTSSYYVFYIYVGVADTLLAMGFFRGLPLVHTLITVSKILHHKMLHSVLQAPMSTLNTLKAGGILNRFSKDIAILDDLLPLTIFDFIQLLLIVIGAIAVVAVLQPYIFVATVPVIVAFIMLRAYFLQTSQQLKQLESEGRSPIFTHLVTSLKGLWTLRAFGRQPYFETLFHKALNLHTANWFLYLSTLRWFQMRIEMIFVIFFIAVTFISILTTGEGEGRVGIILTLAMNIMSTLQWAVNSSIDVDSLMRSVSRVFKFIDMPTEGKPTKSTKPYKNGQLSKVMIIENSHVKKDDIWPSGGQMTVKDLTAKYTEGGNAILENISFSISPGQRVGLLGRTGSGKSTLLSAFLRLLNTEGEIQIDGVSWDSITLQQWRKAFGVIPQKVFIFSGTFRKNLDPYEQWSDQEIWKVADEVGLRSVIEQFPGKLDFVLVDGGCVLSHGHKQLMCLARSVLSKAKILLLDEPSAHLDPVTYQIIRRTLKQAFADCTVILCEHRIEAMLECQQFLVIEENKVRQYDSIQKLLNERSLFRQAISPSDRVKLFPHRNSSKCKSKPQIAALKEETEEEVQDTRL
T2 sequence (P02768 25-609): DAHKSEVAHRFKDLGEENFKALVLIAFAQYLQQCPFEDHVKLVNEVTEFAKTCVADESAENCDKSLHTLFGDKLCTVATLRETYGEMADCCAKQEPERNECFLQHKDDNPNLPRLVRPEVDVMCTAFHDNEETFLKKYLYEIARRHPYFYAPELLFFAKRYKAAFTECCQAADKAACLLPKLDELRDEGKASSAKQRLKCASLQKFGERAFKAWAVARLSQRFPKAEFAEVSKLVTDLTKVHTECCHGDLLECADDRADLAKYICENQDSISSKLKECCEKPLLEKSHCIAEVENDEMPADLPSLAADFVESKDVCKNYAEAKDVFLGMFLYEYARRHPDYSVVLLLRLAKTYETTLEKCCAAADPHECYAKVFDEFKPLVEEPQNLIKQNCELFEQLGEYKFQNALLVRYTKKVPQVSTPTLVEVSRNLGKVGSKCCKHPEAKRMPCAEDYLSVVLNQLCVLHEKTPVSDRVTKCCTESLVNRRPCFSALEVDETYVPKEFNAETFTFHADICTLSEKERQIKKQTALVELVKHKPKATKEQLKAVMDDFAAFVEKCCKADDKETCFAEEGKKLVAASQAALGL

With `CC(C)(C)c1cc(C(C)(C)C)c(NC(=O)c2c[nH]c3ccccc3c2=O)cc1O` [Compound III, N-(5-hydroxy-2,4-di-tert-butyl-phenyl)-4-oxo-1H-quinoline-3-carboxamide, reference compound] the “potentiation of F508del-CFTR delivered to the cell surface” value (F508del-CFTR [1]; CFTR delivered by Compound 1 alone or in combination with Compound II) was “potentiated”.
For `C[C@@H]1CN(c2nc(-n3ccc(OCCC4(C(F)(F)F)CC4)n3)ccc2C(=O)NS(=O)(=O)c2cccc(F)c2)C(C)(C)C1` [Compound 5], the “Rat po % F” value (Rat IV and PO PK studies) was 50%.
For `C[C@@H]1CN(c2nc(-n3ccc(OCCC4(C(F)(F)F)CC4)n3)ccc2C(=O)NS(=O)(=O)c2ccccc2)C(C)(C)C1` [Compound 1, N-(benzenesulfonyl)-6-[3-[2-[1-(trifluoromethyl)cyclopropyl]ethoxy]pyrazol-1-yl]-2-[(4S)-2,2,4-trimethylpyrrolidin-1-yl]pyridine-3-carboxamide], the “Rat po % F” value (Rat IV and PO PK studies) was 63%, the chloride transport (F508del-CFTR [1]; Ussing Chamber, F508del/F508del-HBE cells, listed as Compound I) was “enhanced chloride transport; also recorded: additive to the effect of Compound II” and the “steady-state levels, fold of untreated levels” value (F508del-CFTR [2]; F508del/F508del-HBE cells, 16 to 24 hours, 1 μM Compound 1 alone) was 6.5 fold. For the same compound, the “processing and trafficking of F508del-CFTR” value (F508del-CFTR [2]; in vitro) was “CFTR corrector”.
Work on `C[C@@H]1CN(c2nc(-n3ccc(OCC4(C(F)(F)F)CC4)n3)ccc2C(=O)NS(=N)(=O)c2ccccc2)C(C)(C)C1` (mixture of isomers) yielded an HSA binding [3] of 98.%.
For `C[C@@H]1CN(c2nc(-n3ccc(OCC4(C(F)(F)F)CC4)n3)ccc2C(=O)NS(=O)(=O)c2ccccc2)C(C)(C)C1` [Compound 14, N-(Benzeuesulfonyl)-6-[3-[[1-(trifluoromethyl)cyclopropyl]methoxy]pyrazol-1-yl]-2-[(4S)-2,2,4-trimethylpyrrolidin-1-yl]pyridine-3-carboxamide], the “Rat po % F” value (Rat IV and PO PK studies) was 58%.
Work on `C[C@@H]1CN(c2nc(-n3ccc(OCC4(C(F)(F)F)CC4)n3)ccc2C(=O)NS(=O)(=O)c2ccc(F)cc2)C(C)(C)C1` [Compound 52, N-(4-fluorophenyl)sulfonyl-6-[3-[[1-(trifluoromethyl)cyclopropyl]methoxy]pyrazol-1-yl]-2-[(4S)-2,2,4-trimethylpyrrolidin-1-yl]pyridine-3-carboxamide] yielded an EC50 (F508del-CFTR [4]; [5]) of 100 to 1000 nM.
In the case of `C[C@@H]1CN(c2nc(-n3ccc(OCC(C)(C)C)n3)ccc2C(=O)NS(=O)(=O)c2cccnc2N)C(C)(C)C1` [Comp. A, reference compound], the “Rat po % F” value (Rat IV and PO PK studies) is reported as 28%.
For `C[C@@H]1CN(c2nc(-n3ccc(OCC4(C(F)(F)F)CC4)n3)ccc2C(=O)NS(=O)(=O)c2ccccc2C#N)C(C)(C)C1` [Compound 26, N-(2-Cyanophenyl)sulfonyl-6-[3-[[1-(trifluoromethyl)cyclopropyl]methoxy]pyrazol-1-yl]-2-[(4S)-2,2,4-trimethylpyrrolidin-1-yl]pyridine-3-carboxamide], the EC50 (F508del-CFTR [4]; [5]) was < 100 nM.
With `CC1CC(C)(C)N2c3nc(-n4ccc(OCCC5(C(F)(F)F)CC5)n4)ccc3C(=O)OC12` (stereo not shown) the EC50 (F508del-CFTR [4]; Table 7, Compound 1 and its metabolites) was > 30000 nM.
With `C[C@@H]1CN(c2nc(-n3ccc(OCC4(C(F)(F)F)CCC4)n3)ccc2C(=O)NS(=O)(=O)c2ccccc2)C(C)(C)C1` [Compound 10, N-(Benzenesulfonyl)-6-[3-[[1-(trifluoromethyl)cyclobutyl]methoxy]pyrazol-1-yl]-2-[(4S)-2,2,4-trimethylpyrrolidin-1-yl]pyridine-3-carboxamide] the “Rat po % F” value (Rat IV and PO PK studies) was 41%.
